In ChEMBL document CHEMBL1201862, “PubChem BioAssay data set” (2004):
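Values below derive from 48-hour exposures of cells grown in 96-well plates, with endpoints linearly interpolated between the two concentrations bracketing the appropriate inhibition level. GI50: concentration for 50% inhibition of growth.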 Calls of active or inactive are those of the source. Cut-off read from the data, not from the text of the source: active = GI50 up to about 1.1 µM and inactive = higher.

How the values were obtained:
Experiment in all cases: NCI anticancer screen, dose series, 48 h
786-0 = test system: 786-0
A498 = test system: A498
A549 = test system: A549
ACHN = test system: ACHN
CAKI-1 = test system: CAKI-1
CCRF-CEM = test system: CCRF-CEM
COLO 205 = test system: COLO 205
DU-145 = test system: DU-145
EKVX = test system: EKVX
HCC 2998 = test system: HCC 2998
HCT-116 = test system: HCT-116
HCT-15 = test system: HCT-15
HL-60 = test system: HL-60
HOP-62 = test system: HOP-62
HOP-92 = test system: HOP-92
HT-29 = test system: HT-29
Hs-578T = test system: Hs-578T
IGROV-1 = test system: IGROV-1
K562 = test system: K562
KM12 = test system: KM12
LOX IMVI = test system: LOX IMVI
M14 = test system: M14
MCF7 = test system: MCF7
MDA-MB-231 = test system: MDA-MB-231
MDA-MB-435 = test system: MDA-MB-435
MDA-N = test system: MDA-N
MOLT-4 = test system: MOLT-4
Malme-3M = test system: Malme-3M
NCI-H226 = test system: NCI-H226
NCI-H23 = test system: NCI-H23
NCI-H460 = test system: NCI-H460
NCI-H522 = test system: NCI-H522
NCI/ADR-RES = test system: NCI/ADR-RES
OVCAR-3 = test system: OVCAR-3
OVCAR-4 = test system: OVCAR-4
OVCAR-5 = test system: OVCAR-5
OVCAR-8 = test system: OVCAR-8
PC-3 = test system: PC-3
RPMI-8226 = test system: RPMI-8226
RXF 393 = test system: RXF 393
SF-268 = test system: SF-268
SF-295 = test system: SF-295
SF-539 = test system: SF-539
SK-MEL-28 = test system: SK-MEL-28
SK-MEL-2 = test system: SK-MEL-2
SK-MEL-5 = test system: SK-MEL-5
SK-OV-3 = test system: SK-OV-3
SN12C = test system: SN12C
SNB-19 = test system: SNB-19
SNB-75 = test system: SNB-75
SR = test system: SR
SW-620 = test system: SW-620
T47D = test system: T47D
TK-10 = test system: TK-10
U-251 = test system: U-251
UACC-257 = test system: UACC-257
UACC-62 = test system: UACC-62
UO-31 = test system: UO-31
BT-549 = test system: BT-549

Measured: GI50

CC1=NN(C(=O)CC(=O)Nc2cccc(C)c2)C(=O)C1/N=N/c1ccc(S(=O)(=O)CCOS(=O)(=O)O)cc1 (centres undefined)
319 nM: HCT-15
active: 786-0 0.463 µM | CAKI-1 0.546 µM | CCRF-CEM 0.422 µM | HCT-116 0.373 µM | HT-29 767 nM | IGROV-1 0.63 µM | K562 0.388 µM | LOX IMVI 0.345 µM | M14 0.484 µM | MCF7 0.746 µM | MDA-MB-231 0.275 µM | MDA-MB-435 0.211 µM | MDA-N 309 nM | MOLT-4 0.406 µM | Malme-3M 0.839 µM | NCI-H226 0.718 µM | NCI-H23 0.76 µM | NCI-H522 0.291 µM | NCI/ADR-RES 0.344 µM | OVCAR-8 0.486 µM | PC-3 0.359 µM | SK-MEL-2 0.313 µM | SK-MEL-5 0.369 µM | SK-OV-3 0.326 µM | SN12C 0.471 µM | SNB-75 0.805 µM | SR 0.49 µM | SW-620 0.406 µM
inactive: A498 11.5 µM | A549 4.48 µM | ACHN 4.72 µM | COLO 205 2.45 µM | DU-145 32.3 µM | EKVX 32.2 µM | HCC 2998 2.17 µM | HL-60 1.33 µM | HOP-62 5.47 µM | HOP-92 2.25 µM | Hs-578T 4.18 µM | KM12 2.51 µM | NCI-H460 3.24 µM | OVCAR-3 3.65 µM | OVCAR-4 9.42 µM | OVCAR-5 36.6 µM | RPMI-8226 1.86 µM | RXF 393 1.62 µM | SF-268 5.57 µM | SF-295 2.82 µM | SF-539 2 µM | SK-MEL-28 3.9 µM | SNB-19 4 µM | T47D > 34.5 µM | TK-10 13.1 µM | U-251 3.32 µM | UACC-257 7.71 µM | UACC-62 1.81 µM | UO-31 2.93 µM

CC(=O)C(=CNc1c(C)n(C)n(-c2ccccc2)c1=O)C(C)=O
inactive: 786-0 > 100 µM | A498 > 100 µM | A549 > 100 µM | ACHN > 100 µM | BT-549 > 100 µM | CAKI-1 > 100 µM | CCRF-CEM > 100 µM | COLO 205 > 100 µM | DU-145 > 100 µM | EKVX > 100 µM | HCC 2998 > 100 µM | HCT-116 > 100 µM | HL-60 > 100 µM | HOP-92 > 100 µM | IGROV-1 > 100 µM | K562 > 100 µM | KM12 > 100 µM | LOX IMVI > 100 µM | M14 > 100 µM | MCF7 > 100 µM | MDA-MB-231 > 100 µM | MDA-MB-435 > 100 µM | MOLT-4 > 100 µM | Malme-3M > 100 µM | NCI-H226 > 100 µM | NCI-H23 > 100 µM | NCI-H522 > 100 µM | NCI/ADR-RES > 100 µM | OVCAR-3 > 100 µM | OVCAR-4 > 100 µM | OVCAR-5 > 100 µM | OVCAR-8 > 100 µM | PC-3 > 100 µM | RPMI-8226 > 100 µM | RXF 393 > 100 µM | SF-295 > 100 µM | SF-539 > 100 µM | SK-MEL-2 > 100 µM | SK-MEL-5 > 100 µM | SK-OV-3 > 100 µM | SN12C > 100 µM | SNB-19 > 100 µM | SNB-75 > 100 µM | SR > 100 µM | SW-620 > 100 µM | TK-10 > 100 µM | U-251 > 100 µM | UACC-257 > 100 µM | UACC-62 > 100 µM | UO-31 > 100 µM
> 100000 nM: HCT-15
